According to ChEMBL document CHEMBL1147269, “Cribrarione B, a new naphthoquinone pigment from the myxomycete Cribraria cancellata” (J Nat Prod, 2003):
Activity calls are given as the source filed them. No cut-off for these calls is given here.

System: Bacillus subtilis
Assay: Antimicrobial activity against Bacillus subtilis
Type: functional, organism-based

**Q.** How did the Activity turn out when `CC(O)c1cc(O)c2c(c1O)C(=O)C=C(O)C2=O` (stereo unspecified) was run?
**A.** Its Activity is “inactive”.
